Test results published in patent US20180325914A1, “INCREASING STORAGE OF VITAMIN A, VITAMIN D AND/OR LIPIDS” (Salk Institute for Biological Studies, priority 2014, published 2018).

System: primary HSCs

Cc1sc2c(c1C)C(c1ccc(Cl)cc1)=N[C@@H](CC(=O)OC(C)(C)C)c1nnc(C)n1-2 [JQ1, (S)-tert-butyl 2-(4-(4-chlorophenyl)-2,3,9-trimethyl-6H-thieno[3,2-f][1,2,4]triazolo[4,3-a][1,4]diazepin-6-yl)acetate]
Pla2r1 value_2 (gene Pla2r1, mRNA-Seq, sample Day_6_JQ1): 26.6778 | Plat value_2 (gene Plat, mRNA-Seq, sample Day_6_JQ1): 141.636 | Prelp value_2 (gene Prelp, mRNA-Seq, sample Day_6_JQ1): 1220.99 | Prss35 value_2 (gene Prss35, mRNA-Seq, sample Day_6_JQ1): 23.844 | Ptms value_2 (gene Ptms, mRNA-Seq, sample Day_6_JQ1): 627.919 | Ptrf value_2 (gene Ptrf, mRNA-Seq, sample Day_6_JQ1): 259.645 | Qpct value_2 (gene Qpct, mRNA-Seq, sample Day_6_JQ1): 87.1308 | Rad51 value_2 (gene Rad51, mRNA-Seq, sample Day_6_JQ1): 12.1115 | Rbp1 value_2 (gene Rbp1, mRNA-Seq, sample Day_6_JQ1): 218.378 | Reck value_2 (gene Reck, mRNA-Seq, sample Day_6_JQ1): 17.3878 | Rrm2 value_2 (gene Rrm2, mRNA-Seq, sample Day_6_JQ1): 68.04 | Rtn1 value_2 (gene Rtn1, mRNA-Seq, sample Day_6_JQ1): 47.263 | S100a4 value_2 (gene S100a4, mRNA-Seq, sample Day_6_JQ1): 250.226 | Sbsn value_2 (gene Sbsn, mRNA-Seq, sample Day_6_JQ1): 16.3231 | Scara3 value_2 (gene Scara3, mRNA-Seq, sample Day_6_JQ1): 43.4366 | Sdpr value_2 (gene Sdpr, mRNA-Seq, sample Day_6_JQ1): 94.9074 | Serpini1 value_2 (gene Serpini1, mRNA-Seq, sample Day_6_JQ1): 12.3234 | Sesn3 value_2 (gene Sesn3, mRNA-Seq, sample Day_6_JQ1): 27.3512 | Shcbp1 value_2 (gene Shcbp1, mRNA-Seq, sample Day_6_JQ1): 11.9996 | Shisa2 value_2 (gene Shisa2, mRNA-Seq, sample Day_6_JQ1): 144.995 | Slc2a8 value_2 (gene Slc2a8, mRNA-Seq, sample Day_6_JQ1): 16.1545 | Slc9a3r1 value_2 (gene Slc9a3r1, mRNA-Seq, sample Day_6_JQ1): 161.158 | Snai2 value_2 (gene Snai2, mRNA-Seq, sample Day_6_JQ1): 23.1888 | Spag5 value_2 (gene Spag5, mRNA-Seq, sample Day_6_JQ1): 9.803 | Spc25 value_2 (gene Spc25, mRNA-Seq, sample Day_6_JQ1): 27.2563 | Svep1 value_2 (gene Svep1, mRNA-Seq, sample Day_6_JQ1): 86.2113 | Tbx20 value_2 (gene Tbx20, mRNA-Seq, sample Day_6_JQ1): 54.5866 | Tcf19 value_2 (gene Tcf19, mRNA-Seq, sample Day_6_JQ1): 43.53 | Timp2 value_2 (gene Timp2, mRNA-Seq, sample Day_6_JQ1): 329.559 | Top2a value_2 (gene Top2a, mRNA-Seq, sample Day_6_JQ1): 41.0029 | Upk1b value_2 (gene Upk1b, mRNA-Seq, sample Day_6_JQ1): 78.8086 | Wdr6 value_2 (gene Wdr6, mRNA-Seq, sample Day_6_JQ1): 56.5942 | Zwilch value_2 (gene Zwilch, mRNA-Seq, sample Day_6_JQ1): 13.4294 | 3110003A17Rik value_2 (mRNA-Seq expression, Day_6_JQ1): 104.778 | 6330406I15Rik value_2 (mRNA-Seq expression, Day_6_JQ1): 30.5279 | 9030617O03Rik value_2 (mRNA-Seq expression, Day_6_JQ1): 9.249 | AI597468 value_2 (mRNA-Seq expression, Day_6_JQ1): 20.0206 | Adam12 value_2 (mRNA-Seq expression, Day_6_JQ1): 22.1402 | Adora2b value_2 (mRNA-Seq expression, Day_6_JQ1): 12.9207 | Aga value_2 (mRNA-Seq expression, Day_6_JQ1): 42.0303 | Ak3 value_2 (mRNA-Seq expression, Day_6_JQ1): 27.7827 | Anxa6 value_2 (mRNA-Seq expression, Day_6_JQ1): 122.139 | Arhgef10 value_2 (mRNA-Seq expression, Day_6_JQ1): 5.987 | Ass1 value_2 (mRNA-Seq expression, Day_6_JQ1): 41.1545 | Atp8b2 value_2 (mRNA-Seq expression, Day_6_JQ1): 19.4721 | Btg2 value_2 (mRNA-Seq expression, Day_6_JQ1): 38.7075 | C1qtnf1 value_2 (mRNA-Seq expression, Day_6_JQ1): 19.1118 | C1qtnf6 value_2 (mRNA-Seq expression, Day_6_JQ1): 58.5752 | Cav1 value_2 (mRNA-Seq expression, Day_6_JQ1): 17.5128 | Ccdc104 value_2 (mRNA-Seq expression, Day_6_JQ1): 19.7014 | Ccdc109b value_2 (mRNA-Seq expression, Day_6_JQ1): 9.232 | Cdc42bpa value_2 (mRNA-Seq expression, Day_6_JQ1): 16.5997 | Cdkn2b value_2 (mRNA-Seq expression, Day_6_JQ1): 41.7085 | Chst14 value_2 (mRNA-Seq expression, Day_6_JQ1): 18.8651 | Ckap4 value_2 (mRNA-Seq expression, Day_6_JQ1): 147.656 | Cnn2 value_2 (mRNA-Seq expression, Day_6_JQ1): 222.556 | Col5a1 value_2 (mRNA-Seq expression, Day_6_JQ1): 106.143 | Col5a2 value_2 (mRNA-Seq expression, Day_6_JQ1): 372.729 | Col6a1 value_2 (mRNA-Seq expression, Day_6_JQ1): 47.4496 | Col8a1 value_2 (mRNA-Seq expression, Day_6_JQ1): 69.7251 | Cpe value_2 (mRNA-Seq expression, Day_6_JQ1): 54.9734 | Cpz value_2 (mRNA-Seq expression, Day_6_JQ1): 4.843 | Csrp1 value_2 (mRNA-Seq expression, Day_6_JQ1): 294.801 | Cygb value_2 (mRNA-Seq expression, Day_6_JQ1): 51.8956 | Cyp51 value_2 (mRNA-Seq expression, Day_6_JQ1): 13.4382 | Dcaf12l1 value_2 (mRNA-Seq expression, Day_6_JQ1): 3.456 | Dlg4 value_2 (mRNA-Seq expression, Day_6_JQ1): 9.101 | Dnajb4 value_2 (mRNA-Seq expression, Day_6_JQ1): 44.3814 | Dst value_2 (mRNA-Seq expression, Day_6_JQ1): 16.9506 | Eda2r value_2 (mRNA-Seq expression, Day_6_JQ1): 23.0105 | Efemp2 value_2 (mRNA-Seq expression, Day_6_JQ1): 169.818 | Epdr1 value_2 (mRNA-Seq expression, Day_6_JQ1): 7.336 | Evc2 value_2 (mRNA-Seq expression, Day_6_JQ1): 7.337 | Fam114a1 value_2 (mRNA-Seq expression, Day_6_JQ1): 29.7898 | Fam115c value_2 (mRNA-Seq expression, Day_6_JQ1): 4.611 | Fam149a value_2 (mRNA-Seq expression, Day_6_JQ1): 4.452 | Fam189b value_2 (mRNA-Seq expression, Day_6_JQ1): 7.431 | Fgf18 value_2 (mRNA-Seq expression, Day_6_JQ1): 10.4873 | Fhl2 value_2 (mRNA-Seq expression, Day_6_JQ1): 40.1985 | Flnc value_2 (mRNA-Seq expression, Day_6_JQ1): 24.3492 | Fzd2 value_2 (mRNA-Seq expression, Day_6_JQ1): 16.4688 | Gabra3 value_2 (mRNA-Seq expression, Day_6_JQ1): 14.8418 | Gas6 value_2 (mRNA-Seq expression, Day_6_JQ1): 41.2636 | Gm5424 value_2 (mRNA-Seq expression, Day_6_JQ1): 5.331 | Gpx8 value_2 (mRNA-Seq expression, Day_6_JQ1): 110.547 | Grhpr value_2 (mRNA-Seq expression, Day_6_JQ1): 13.8722 | Gria3 value_2 (mRNA-Seq expression, Day_6_JQ1): 4.78 | Igfbp3 value_2 (mRNA-Seq expression, Day_6_JQ1): 483.66 | Igsf8 value_2 (mRNA-Seq expression, Day_6_JQ1): 44.7273 | Il1rap value_2 (mRNA-Seq expression, Day_6_JQ1): 20.7058 | Inpp5a value_2 (mRNA-Seq expression, Day_6_JQ1): 33.3765 | Isoc2b value_2 (mRNA-Seq expression, Day_6_JQ1): 4.059 | Kif1a value_2 (mRNA-Seq expression, Day_6_JQ1): 6.57 | LOC100616095 value_2 (mRNA-Seq expression, Day_6_JQ1): 13.992 | Lama2 value_2 (mRNA-Seq expression, Day_6_JQ1): 9.263 | Lars2 value_2 (mRNA-Seq expression, Day_6_JQ1): 12.6226 | Lpp value_2 (mRNA-Seq expression, Day_6_JQ1): 24.9042 | Lrig3 value_2 (mRNA-Seq expression, Day_6_JQ1): 4.218 | Lrrn4 value_2 (mRNA-Seq expression, Day_6_JQ1): 11.7356 | Maged2 value_2 (mRNA-Seq expression, Day_6_JQ1): 60.8426 | Mboat7 value_2 (mRNA-Seq expression, Day_6_JQ1): 28.6438 | Meg3 value_2 (mRNA-Seq expression, Day_6_JQ1): 15.1775 | Mlec value_2 (mRNA-Seq expression, Day_6_JQ1): 92.0676 | Mmgt2 value_2 (mRNA-Seq expression, Day_6_JQ1): 10.425 | Mmp2 value_2 (mRNA-Seq expression, Day_6_JQ1): 73.6315 | Mpp2 value_2 (mRNA-Seq expression, Day_6_JQ1): 4.639
